A short description of assay [1]: EDC sterilization of pretreated cross-linked porcine aortic root tissue without lower alkanol. Particulars: tissue pretreated with acetic anhydride or a mixture of TRIS and isopropylamine; absence of a lower alkanol.
The subject of a further assay is spores Bacillus subtilis. The assay is described as follows: Sterilization efficacy of EDC with blocking agents, spores in glass ampoules (Example 3). Particulars: EDC in HEPES buffer containing 20% isopropyl alcohol, in the presence or absence of tissue. Format: cell-based. As for the experimental part: EDC sterilization in HEPES buffer containing 20% isopropyl alcohol, carried out either in the presence or in the absence of tissue, leads to complete kill of the spores Bacillus subtilis. The following experiment was designed to test whether the sterilization efficacy of EDC remains substantially unaffected by the presence of […]. […] After 10 minutes, 10 mL of Solutions A, B, C, D, E and F containing 25 mM EDC were added, the ampoules were heat-sealed and placed at 40° C. After 24 hours, the solutions from the ampoules were filtered to recover the spores, the filters were washed with 0.1% peptone water, and these were incubated on TSA plates for up to 10 days at 32° C. to 33° C., after which the colonies were enumerated.

In assay [2] the test system is Bacillus Subtilis (ATCC 9372)spores. The assay is described as follows: Sterilization of spores inoculated in cups with cross-linked porcine heart valve leaflets (Example 1). It counts as cell-based. As to conditions: EDC 25 mM, 50 mM and 70 mM, 100 mM ethanolamine, 20% isopropyl alcohol, HEPES pH 6.5, 40° C., after one day. As for the experimental part: When porcine aortic roots that are fixed are employed, they are cross-linked according to the method described in U.S. Pat. No. 5,447,536 or glutaraldehyde-fixed or cross-linked or fixed with any other method used to preserve tissue. After fixation, the tissue is stored in 10 mM HEPES, 0.85% NaCl, 20% isopropyl alcohol, pH 7.4, at 4° C. The sterility tests described in the following examples are conducted in the presence of bovine pericardium or porcine heart valve tissue. After such tissue is inoculated with microorganisms for test purposes and then submitted to sterilization, the solution is filtered through a 0.45 micron filter attached to a funnel (filter funnel). The tissue is washed for 20 minutes in a reciprocating shaker in the presence of peptone water containing Tween 80 in order to extract all indigenous spores or microorganisms from the tissue. This solution is then filtered through the same respective filter. The filters are then rinsed with peptone water to eliminate residual chemicals on the membrane that may prevent growth of the organisms tested. The membrane filters are incubated on solid agar TSA plates (Millipore) at about 32° to 33° C., e.g. 32.5° C. All microbiological testing is performed in a biological laminar flow hood to prevent contamination. […]

These results are taken from patent US6521179B1, “Sterilization” (Biomedical Design, Inc., priority 1999, dated 2003).

Take `CCN=C=NCCCN(C)C.Cl` [EDC, 1-ethyl-3(3-dimethylaminopropyl) carbodiimide hydrochloride]: the “sterilization of tissue samples” value in assay [1] is listed as “effectively sterilized”. Further, the kill of spores entry (in the assay with spores Bacillus subtilis; in assay [2]) was “complete kill” in each case.
